Experimental data reported in PMC8155176, “Reversible modulation of circadian time with chronophotopharmacology” (Nature Communications, 2021).
“Also recorded” adds a separate entry of the source. Where two headings read alike, the source gives them in different places.

Experiments:
[1] = Chemical stability under dark and irradiation conditions followed by LCMS; format: physicochemical; settings: 40 µM in kinase assay buffer or cell culture medium, dark, 365 nm 3 h, 400 nm 30 min
Protocol: LCMS traces of stability studies
Supplementary Figure 8. Chemical stability of compound 3 under dark and irradiation conditions followed by LCMS. All the samples were prepared as 40 µM solution in buffer or cell culture medium. ‘Buffer’ and ‘medium’ samples were injected immediately upon dissolving compound 3, ‘buffer_3h_dark’ was injected after 3 h of keeping the solution in dark, ‘buffer_3h_365nm’ after irradiation of the sample for 3 h with UV light in kinase assay buffer, and ‘medium_30min_400nm’ after 30 min of irradiation with 400 nm in cell culture medium. The trans-isomer was followed at the retention time of 10.41-10.47 min and the cis-isomer at the retention time of 8.84-8.90 min. Mass spectra of both isomers in different […]
(1 picture or pasted object on this page, not shown here)

[2] = Solubility test in kinase assay buffer and cell culture medium; format: physicochemical
Protocol: Solubility studies were performed in kinase assay buffer and cell culture medium. Half of the solutions of the compounds in DMSO was thermally adapted (‘Dark’) and the other half was irradiated for 1 h with UV light (λmax = 365 nm, ‘Light’) green light in case of 9 (λmax = 530 nm, ‘Light’). Solubility is indicated in the Supplementary Table 1. […]
precipitation were excluded from the dose-response curves in the enzymatic assay .
Supplementary Table 1. Solubility of the photos witchable compounds in the highest concentrations that were used in the enzymatic assay.
Kinase assay buffer Cell culture medium […]

[3] = target: T1, CKIα (Homo sapiens, UniProt P48729); experiment: In vitro kinase assay (Kinase Glo), CKIα; format: biochemical; settings: for fold difference in CKIα inhibition between dark and UV-irradiated sample: trans vs cis-enriched (365 nm), 5 is stronger under light, the others weaker; for light dependence of CKIα inhibition (in words): UV light 365 nm vs dark
T1 construct: purchased Invitrogen PV3850
T1 sequence (P48729 whole entry): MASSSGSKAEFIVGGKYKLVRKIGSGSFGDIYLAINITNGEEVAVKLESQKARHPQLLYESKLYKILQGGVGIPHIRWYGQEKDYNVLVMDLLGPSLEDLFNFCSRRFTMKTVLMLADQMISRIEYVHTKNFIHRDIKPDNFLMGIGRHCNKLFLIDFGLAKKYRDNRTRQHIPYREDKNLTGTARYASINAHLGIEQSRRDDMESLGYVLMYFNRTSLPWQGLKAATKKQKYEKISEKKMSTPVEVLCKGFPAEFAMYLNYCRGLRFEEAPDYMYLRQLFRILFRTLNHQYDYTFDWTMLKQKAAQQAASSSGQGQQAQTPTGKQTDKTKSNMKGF
Protocol: A stock solution of 7.4 mM in DMSO was prepared and thermally adapted by heating to c.a. 100 °C for 1 min. Two series of eight samples were prepared with consecutive three-time dilutions from the stock solution. One of the series (‘dark’ samples) was prepared in dark Eppendorf tube, the other series (‘light’ samples) was pre-irradiated with UV light (365 nm, UV lamp Spectroline, ENB-280/FE, 1 × 8 Watt) for 45 min. For compound 9, 1 mM solution in DMSO was thermally adapted by heating to 80 °C for 2 min and split into two vials. One vial was kept in the dark and the other was irradiated with green light (530 nm, 3x Nichia NCSG219B-V1, 3 × 550 mW, Sahlmann Photochemical Solutions) for 60 min. Both dark-kept and irradiated samples were subjected to 8-point 3-fold dilutions. All the solutions were applied to the well plate under a red lamp in the dark room in order to prevent ambient-light-induced photo-isomerization.
The assays were performed on a white, solid-bottom 384-well plates. The total volume for the reaction is 10.5 µl. Firstly, a solution of CKI and peptide was added to the bottom of the well (9 µL). Next, a corresponding solution of the compound (0.5 μL, final 5% DMSO) followed by 50 μM ATP solution (1 μL) were pipetted into the upper corners of each well. The enzymatic reaction was started by spinning down the plate (1800 x g, 2 min).
By employing this method, all reactions were started at the same time, minimizing variance between different samples. Incubation for 3 h at 30 °C or 2 h at 37 °C allowed for the enzymatic phosphorylation of the substrate peptide. As the reaction started, the wells with ‘light’ samples were irradiated with UV light or kept in dark in case of experiment with compound 9. ‘Dark’ (0 min pre-irradiation) wells were covered with an aluminum sticker from the beginning. After the incubation, 10 μL Kinase Glo® (Promega) was applied into the wells and the luminescent signal was recorded by a plate reader (BioTek Synergy H1 or Cytation).
The total volume for the reaction was 10.5 µl. The reaction mixture contained the following: for CKIδ, 4 ng/µl CKIδ (14-520, Eurofins), 50 µM peptide substrate RKKKAEpSVASLTSQCSYSS corresponding to human PER2 Lys659-Ser674, and CKI buffer (40 mM Tris, 10 mM MgCl2, 0.5 mM DTT, 0.1 mg/ml BSA, pH7.4); for CKIα, 1 ng/µl CKIα (PV3850, Invitrogen), 50 µM CKI peptide substrate (60547-1, Anaspec), and CKI buffer.
The data obtained from the in vitro kinase assay was analyzed using GraphPad software, in which the luminescence outcome is normalized. Normalization is done using a luminescent output of the control that contained high concentration of longdaysin (370 µM) as 100% inhibition and DMSO for 0% inhibition. In all graphs, a dose-response fit was used to obtain

[4] = test system: U2OS cells; experiment: Circadian period assay in Bmal1-dLuc U2OS reporter cells; format: cell-based, human
Protocol: Next, we tested if the observed light-dependent CKIα inhibition translates into photomodulation of the circadian period in human U2OS cells (Fig. 2d). The Bmal1-dLuc reporter cell line contains the coding sequence of destabilized luciferase driven by the Bmal1 gene promoter sequence. The cell culture medium for luminescence recording includes a high concentration of luciferin (0.2 mM), a substrate for luciferase, which strongly absorbs UV light (Supplementary Fig. 30). […] As the circadian period change is directly correlated with the potency and concentration of the inhibitor[10], the cells were treated with photoswitchable modulators using a broad range of concentrations.
In comparison to the kinase assay, the direct use of UV light for preventing a thermal back-isomerization of the cis-isomer was not feasible due to the cell-damaging effect and the presence of luciferin in the medium. Therefore, the modulators were kept in the dark or photo-isomerized in DMSO prior to the addition, without further irradiation during the circadian assay. All three modulators lengthened the period in the U2OS cells both in the dark and upon irradiation (Fig. 2d). […] Altogether, based on the efficient generation of the cis-isomer under irradiation, retained potency and promising light-modulation of CKIα inhibition, the meta-substituted modulator 4 was identified as representing lead substitution pattern for further investigation.
Stable U2OS reporter cells harboring Bmal1-dLuc reporter were suspended in phenol red-free culture medium [DMEM (D2902, Sigma) supplemented with 10% fetal bovine serum, 3.5 mg/mL D-glucose, 3.7 mg/mL sodium bicarbonate, 0.29 mg/mL L-glutamine, 100 units/mL penicillin, and 100 µg/mL streptomycin] and plated onto a white, solid-bottom 384-well plates at 30 µL (3000 cells) per well. After 2 days, 40 µL of phenol red-free explant medium [DMEM (D2902, Sigma) supplemented with 2% B27 (Gibco), 10 mM HEPES, 3.5 mg/mL D-glucose, 0.38 mg/mL sodium bicarbonate, 0.29 mg/mL L-glutamine, 100 units/mL penicillin, 100 µg/mL streptomycin, and 0.2 mM luciferin; pH 7.2] was dispensed into each well, followed by the application of 0.5 μL of compounds (dissolved in DMSO; final 0.7% DMSO; pre-irradiated with UV for 60 min, white LED for 10 min, and/or green LED for 60 min when indicated). The plate was covered with an optically clear film, and subjected to irradiation with 530 nm LED lamp (3 × 550 mW, λmax = 530 nm, FWHM 36 nm, Sahlmann Photochemical Solutions) or 400 nm LED lamp (3 × 1000 mW, λmax = 400 nm, FWHM 11.9 nm, Sahlmann Photochemical Solutions) from 12 cm distance for 30 min. Compound handling and irradiation were conducted in a dark room under red lamp illumination. Luminescence was recorded every 100 min in a microplate reader, Infinite M200Pro (Tecan). For the phase control experiments, cellular light irradiation was performed in a dark 32 °C room and luminescence was recorded in a microplate reader Synergy H1 (BioTek) placed in the same room, to avoid possible effect of transient temperature change on the phase. Circadian period and phase were determined from luminescence rhythms by a curve fitting program MultiCycle (Actimetrics). Data from the first day was excluded from analysis, because of transient changes in luminescence upon medium change. Statistical significance was evaluated using two-way analysis of variance (ANOVA) followed by a Sidak’s multiple comparisons test or one-way ANOVA followed by a Tukey’s multiple comparisons test using Prism software (GraphPad Software).

[5] = irradiated with UV light (365 nm) before and during the assay, cis-enriched, read-out: CKIα IC50, light
[6] = thermally adapted trans-isomer kept in the dark, read-out: CKIα IC50, dark

| SMILES | chemical stability (reduction or oxidation of the azo group) [1] | solubility in aqueous media (in words) [2] | IC50 [3, 5] | IC50 [3, 6] | fold difference in CKIα inhibition between dark and UV-irradiated sample [3] | light-induced change of period lengthening ([4]; 72 μM, UV pre-irradiated vs dark) | light-induced deactivation of period lengthening ([4]; 3 μM, UV pre-irradiated vs dark) | light dependence of CKIα inhibition (in words) [3] | influence of green or violet light on the period change ([4]; control experiment) | effect of UV light irradiation on period lengthening ([4]; UV (365 nm) pre-irradiated) | recovery of biological activity upon back-isomerization with white light ([4]; UV light followed by white light) | period lengthening effect under dark conditions ([4]; dark) | period lengthening in U2OS cells ([4]; 24 μM) | light-modulation of period lengthening ([4]; 24 μM, UV pre-irradiated vs dark) |
| --- | --- | --- | --- | --- | --- | --- | --- | --- | --- | --- | --- | --- | --- | --- |
| COc1ccc(/N=N/c2cccc(CNc3ncnc4c3ncn4C(C)C)c2)cc1 [Compound 6] | Products of reduction or oxidation were not observed | increased solubility | 13.3 µM | 2.8 µM | 5 fold |  |  |  |  |  |  |  |  |  |
| CC(C)n1cnc2c(NCc3ccccc3/N=N/c3ccccc3)ncnc21 [Compound 5] | Products of reduction or oxidation were not observed | solubility issues at high concentrations | 54 µM | 96 µM |  | weak activation |  |  |  |  |  |  |  |  |
| CC(C)n1cnc2c(NCc3cccc(/N=N/c4ccccc4)c3)ncnc21 [Compound 4] | Products of reduction or oxidation were not observed |  | 8.6 µM | 1.9 µM | 4.5 fold |  | ca. 2 h | substantial light-induced inactivation |  |  |  |  |  |  |
| CC(C)n1cnc2c(NCc3cccc(C(F)(F)F)c3)ncnc21 [longdaysin, reference compound] |  |  | 4.3 µM |  |  |  |  | negligible effect of UV irradiation on the potency | negligible influence |  |  |  |  |  |
| CC(C)n1cnc2c(NCc3cccc(/N=N/c4c(F)cccc4F)c3)ncnc21 [Compound 7] | Products of reduction or oxidation were not observed; also recorded: both chemical and photochemical stability |  | 9.3 µM | 2.4 µM | four times less potent |  |  |  |  | suppressed by UV light irradiation; also recorded: most pronounced period lengthening deactivation | partial recovery | strong period lengthening effect |  |  |
| CC(C)n1cnc2c(NCc3ccc(/N=N/c4ccccc4)cc3)ncnc21 [Compound 3] | Products of reduction or oxidation were not observed |  | 4.5 µM | 3.6 µM |  |  |  | no obvious light-dependent changes of CKIα inhibition |  |  |  |  | 4 h | no light-modulation |
